# Values of other authors in patent US10085973B2, “Pharmaceutical composition containing a compound having a thrombopoietin receptor agonistic activity” (Shionogi & Co., Ltd., priority 2012, dated 2018).
# Read-outs that look alike come from different tables or passages of the source.
# Test system: chronic liver disease patients with platelet count of less than 5×10^4/μL
# Settings: cited from earlier work
structure (smiles),measurement,setting,value
CC1=NN(c2ccc(C)c(C)c2)C(=O)/C1=N\Nc1cccc(-c2cccc(C(=O)O)c2)c1O [Eltrombopag],avoidance of platelet transfusion,"active drug group, administered for 2 weeks before invasive procedures",72%
same,incidence of portal vein thrombosis,active drug group,4%
same,risk of development of portal vein thrombosis,group having platelet count of 20×10^4/μL or higher during the investigation period,10.6%
same,risk of development of portal vein thrombosis,group with platelet count of less than 20×10^4/μL,1.2%
same,"risk of portal vein thrombosis, group 20×10^4/μL or higher vs group less than 20×10^4/μL","human, in vivo",about 9 times
same,cases with platelet count 20×10^4/μL or higher at the time of development of portal vein thrombosis,out of 6 cases in the active drug group,5
